Reference: patent US8987245B2, “Composition and method for affecting obesity and related conditions” (priority 2008, dated 2015)
Entries after “also recorded” stand apart in the source; their conditions may differ.

How the values were obtained:
[1] = test system: diet-induced mouse model of obesity; assay: Experiment I: diet-induced mouse model of obesity, body weight, fat pad weights, caloric intake; format: in vivo, male C57BL/6J mice
Description: The following experiment involved a diet-induced mouse model of obesity. In particular, male C57BL/6J mice (these wildtype mice are genetically distinct from ob/ob and db/db mice and are not leptin-deficient) were placed on a high fat diet (HFD) or control diet (CON) at 8 wks of age, and MnTBAP or vehicle administration was initiated 5 months later, when all mice were at a steady state body weight. Mice receiving the CON diet served as lean control animals to those receiving the HFD diet. Each of the CON and HFD mice groups were then further divided into two groups. One of the CON and HFD groups was treated with 10 mg MnTBAP/kg of body weight for 30 days, and the other groups received a vehicle for 30 days. The term “vehicle” refers to the solvent used to deliver MnTBAP. In this experiment, MnTBAP was dissolved in 2% bicarbonate (pH 8.0) to a final concentration of 2 mg/mL. Vehicle-treated mice received a volume of vehicle that would have been sufficient to deliver 10 mg of MnTBAP per kg of body weight were the compound present. MnTBAP was purchased from A.G. Scientific Inc., San Diego, Calif. […] The above-identified doses of MnTBAP and vehicle were administered to the mice as daily intraperitoneal injections.
At the start of the treatment, there were no significant differences in body weight between MnTBAP and vehicle groups within each diet (CON: p=0.99; HFD: p=0.77). In addition, HFD mice were dramatically heavier than CON mice at the start of treatment (p<0.001).
Before and after treatment, insulin sensitivity (IS) was assessed using an insulin-assisted glucose tolerance test (IA-GTT) after a 16-hour fast. Fasting body weights were measured at the end of each fast just prior to initiation of the IA-GTT. Approximately 5-7 days after the post-treatment IA-GTT, mice were stimulated with insulin ten minutes prior to delivery of an anesthetic cocktail to induce deep anesthesia for harvesting of quadriceps, tibialis anterior, soleus, gastrocnemius, subcutaneous white adipose tissue (SWAT), epididymal white adipose tissue (EWAT), and liver. In addition, SWAT and EWAT weights were measured immediately after harvest. Tissues were snap frozen in liquid nitrogen and stored at −80° C. until analysis. One quadriceps muscle from each mouse was homogenized for biochemical analyses.
Fasting body weights; fed-state body weights; and plasma glucose levels at various times during the IA-GTT, a test used to assess insulin sensitivity, were compared after treatment using a 2×2 analysis of variance (ANOVA) with repeated measures. Here “repeated measures” refers to the time of glucose measurement during the IA-GTT: 0, 15, 30, 45, 60 min. Subcutaneous white adipose tissue weights; epididymal white tissue adipose weights; caloric consumption; and all biochemical data, such as UCP-2, UCP-3, and PKB expression, were compared using a 2×2 ANOVA without repeated measures.

[2] = test system: diet-induced mouse model of obesity; assay: Experiment I: insulin-assisted glucose tolerance test (IA-GTT), insulin sensitivity; format: in vivo, male C57BL/6J mice; conditions: HFD mice, 10 mg/kg daily, after 16-hour fast
Description: (§1) The following experiment involved a diet-induced mouse model of obesity. In particular, male C57BL/6J mice (these wildtype mice are genetically distinct from ob/ob and db/db mice and are not leptin-deficient) were placed on a high fat diet (HFD) or control diet (CON) at 8 wks of age, and MnTBAP or vehicle administration was initiated 5 months later, when all mice were at a steady state body weight. Mice receiving the CON diet served as lean control animals to those receiving the HFD diet. Each of the CON and HFD mice groups were then further divided into two groups. One of the CON and HFD groups was treated with 10 mg MnTBAP/kg of body weight for 30 days, and the other groups received a vehicle for 30 days. The term “vehicle” refers to the solvent used to deliver MnTBAP. In this experiment, MnTBAP was dissolved in 2% bicarbonate (pH 8.0) to a final concentration of 2 mg/mL. Vehicle-treated mice received a volume of vehicle that would have been sufficient to deliver 10 mg of MnTBAP per kg of body weight were the compound present. […]
(§2) Before and after treatment, insulin sensitivity (IS) was assessed using an insulin-assisted glucose tolerance test (IA-GTT) after a 16-hour fast. Fasting body weights were measured at the end of each fast just prior to initiation of the IA-GTT. […] In addition, SWAT and EWAT weights were measured immediately after harvest. […]

[3] = test system: uncoupling protein-3 (UCP3); assay: Experiment I: UCP3 expression in skeletal muscle (quadriceps); format: in vivo, male C57BL/6J mice
Description: as §1, §2

[4] = test system: protein kinase B (PKB); assay: Experiment I: PKB activity and expression in skeletal muscle (quadriceps); format: in vivo, male C57BL/6J mice
Description: The following experiment involved a diet-induced mouse model of obesity. In particular, male C57BL/6J mice (these wildtype mice are genetically distinct from ob/ob and db/db mice and are not leptin-deficient) were placed on a high fat diet (HFD) or control diet (CON) at 8 wks of age, and MnTBAP or vehicle administration was initiated 5 months later, when all mice were at a steady state body weight. Mice receiving the CON diet served as lean control animals to those receiving the HFD diet. Each of the CON and HFD mice groups were then further divided into two groups. One of the CON and HFD groups was treated with 10 mg MnTBAP/kg of body weight for 30 days, and the other groups received a vehicle for 30 days. […]
as §2
In addition to affecting weight loss, MnTBAP has been shown by the above experiment to increase insulin sensitivity. […] It is noted that HFD mice were very insulin resistant before treatment (p<0.001), but a main effect for diet after treatment (p=0.3) was not detected, a result that underscores MnTBAP's effect on insulin action.

[5] = test system: diet-induced mouse model of obesity; assay: Experiment II: diet-induced mouse model of obesity, food intake and body weight; format: in vivo, male C57BL/6J mice; conditions: 10 mg/kg for 36 days
Description: The following experiment involved a diet-induced mouse model of obesity. In particular, male C57BL/6J mice (these wildtype mice are genetically distinct from ob/ob and db/db mice and are not leptin-deficient) were placed on a high fat diet (HFD) or control diet (CON) at 8 wks of age, and MnTBAP or vehicle administration was initiated 6 months later, when all mice were at a steady state body weight. Mice receiving the CON diet served as lean control animals to those receiving the HFD. Each of the CON and HFD mice groups were then further divided into two groups. One of the CON and HFD groups was treated with 10 mg MnTBAP/kg of body weight for 36 days, and the other groups received a vehicle for 36 days. Food intake was measured on days 0, 3, 9, 14 and 35 post-treatment.

[6] = cited from earlier work
[7] = many in ob/ob mice, younger mice; cited from earlier work
[8] = both CON and HFD mice, 10 mg/kg daily i.p. for 30 days
[9] = HFD mice, quadriceps, 10 mg/kg daily for four weeks

In the case of O=C(O)c1ccc(-c2c3nc(c(-c4ccc(C(=O)O)cc4)c4ccc([n-]4)c(-c4ccc(C(=O)O)cc4)c4nc(c(-c5ccc(C(=O)O)cc5)c5ccc2[n-]5)C=C4)C=C3)cc1.[Mn+3] [MnTBAP, manganese [III] tetrakis (4-benzoic acid) porphyrin], the “share of weight loss due to decreased SWAT and EWAT fat deposits” value ([1]; 10 mg/kg daily i.p. for 30 days) is reported as “approximately 50%”, the “treatment time until significant weight loss, fed state” value ([1]; CON mice, 10 mg/kg daily i.p.) is reported as 27 days and the “body weight less than vehicle-treated mice after treatment” value ([1]; CON mice, 10 mg/kg daily i.p. for 30 days, vs CON vehicle) is reported as 12.4%. The “treatment time until significant weight loss, fed state” value ([1]; HFD mice, 10 mg/kg daily i.p.) was 15 days, the “weight loss after 30 days of treatment” value ([1]; HFD mice, 10 mg/kg daily i.p.) was “dramatic weight loss” and the “body weight less than vehicle-treated mice after treatment” value ([1]; HFD mice, 10 mg/kg daily i.p. for 30 days, vs HFD vehicle) was 18.6%. For the same compound, the “EWAT weight compared to vehicle” value [1, 8] was “dramatic reductions”, the “SWAT weight compared to vehicle” value [1, 8] was “dramatic reductions” and the daily caloric intake [1, 8] was “without affecting daily caloric intake”. For the same compound, the “fasting body weight compared to vehicle” value [1, 8] was “dramatic reductions”, the “fasting body weight after treatment vs before treatment” value ([1]; both HFD and CON mice, 10 mg/kg daily i.p. for 30 days) was “lower than before treatment” and the “insulin sensitivity (IA-GTT)” value [2] was “significantly enhanced insulin sensitivity; also recorded: significantly improved insulin sensitivity”. For the same compound, the UCP3 levels ([3]; CON mice, skeletal muscle, 10 mg/kg daily) was “lack of a significant increase”, the “UCP3 expression greater than vehicle” value [3, 9] was ~60% and the PKB expression ([4]; CON mice, 10 mg/kg daily) was “A statistically significant increase in PKB expression was not observed”. For the same compound, the “increase in activity and expression of PKB vs vehicle” value [4, 9] was ~60%, the “body weight and fat mass compared to vehicle-treated controls” value ([5]; CON mice) was “lost a significant amount” and the “food intake vs vehicle” value ([5]; CON mice, days 0, 3, 9, 14 and 35) was “did not differ”. For the same compound, the “decrease in caloric intake over the course of the study” value ([5]; HFD mice) was 16.6%, the “food intake compared to vehicle-treated controls” value ([5]; HFD mice) was “markedly decreased food intake” and the adverse side effects ([6]; doses up to 10 mg/kg of body weight) was “no known adverse side effects”. For the same compound, the “mortality rates and age of death” value ([6]; mice, up to a dose of 88 mg/kg of body weight) was “does not increase mortality rates or decrease age of death” and the “body weight change in known studies” value [7] was “either no change in weight or slowed weight gain but did not induce weight loss”.
